Literature values, collected in patent publication US10632087B2, “Famciclovir and meloxicam combination therapy for functional somatic syndromes” (INNOVATIVE MED CONCEPTS, LLC., priority 2012, dated 2020).

System: fibromyalgia patients
Conditions: valacyclovir alone; not recommended as therapy for fibromyalgia

Structure (SMILES): CC(C)[C@H](N)C(=O)OCCOCn1cnc2c(=O)[nH]c(N)nc21 [valacyclovir]
- treatment of fibromyalgia patients: not successful
